# ChEMBL document CHEMBL5143535, “Novel O-acylated (E)-3-aryl-6,7-dihydrobenzisoxazol-4(5H)-one oximes targeting HSP90-HER2 axis in breast cancer cells” (Bioorg Med Chem, 2022)
# Active and inactive are the calls of the source. The rule behind the calls is not given here.
# Key:
# [1] = system: MCF7; assay: Antiproliferative activity against human MCF7 cells measured after 72 hrs by MTT assay; assay type: functional, cell-based; conditions: MCF7, 72 h
# [2] = system: MDA-MB-231; assay: Antiproliferative activity against human MDA-MB-231 cells measured after 72 hrs by MTT assay; assay type: functional, cell-based; conditions: MDA-MB-231, 72 h
# [3] = system: HCC1954; assay: Antiproliferative activity against human HCC1954 cells measured after 72 hrs by MTT assay; assay type: functional, cell-based; conditions: HCC1954, 72 h
# [4] = system: HCC1954; assay: Induction of apoptosis in human HCC1954 cells assessed as reduction in NF-kappaB expression at 10 to 20 uM measured after 72 hrs by Western blot analysis; assay type: functional, cell-based; conditions: dose 10-20 µM
# [5] = system: HCC1954; assay: Cell cycle arrest in human HCC1954 cells assessed as increase in cell accumulation at sub-G1 phase measured after 48 hrs by propidium iodide staining based flow cytometry; assay type: functional; conditions: dose 10-20 µM, DDE = dose-dependent effect
# [6] = target: T1, Heat shock protein HSP90 (Homo sapiens) (UniProt P07900+P08238); assay: Inhibition of HSP90 in human HCC1954 cells assessed as down regulation of AKT expression at 10 to 20 uM measured after 72 hrs by Western blot analysis; assay type: cell-based; conditions: dose 10-20 µM
# [7] = target: T1, Heat shock protein HSP90 (Homo sapiens); assay: Inhibition of HSP90 in human HCC1954 cells assessed as down regulation of HER2 expression at 10 to 20 uM measured after 72 hrs by Western blot analysis; assay type: cell-based; conditions: dose 10-20 µM
# [8] = system: HCC1954; assay: Cell cycle arrest in human HCC1954 cells assessed as decrease in cell accumulation at G1 phase at 10 to 20 uM measured after 48 hrs by propidium iodide staining based flow cytometry; assay type: functional; conditions: dose 10-20 µM
# [9] = target: T1, Heat shock protein HSP90 (Homo sapiens); assay: Inhibition of HSP90 in human HCC1954 cells assessed as down regulation of EGFR expression at 10 to 20 uM measured after 72 hrs by Western blot analysis; assay type: cell-based; conditions: dose 10-20 µM
# [10] = system: HCC1954; assay: Cell cycle arrest in human HCC1954 cells assessed as cell accumulation at sub-G1 phase at 20 uM measured after 48 hrs by propidium iodide staining based flow cytometry relative to control; assay type: functional
# [11] = system: HCC1954; assay: Antiproliferative activity against human HCC1954 cells measured after 72 hrs by SRB assay; assay type: functional, cell-based; conditions: HCC1954, 72 h
# [12] = Cytotoxicity against human MCF-10A cells measured after 72 hrs by MTT assay; assay type: toxicity, cell-based
# [13] = system: HCC1954; assay: Induction of apoptosis in human HCC1954 cells assessed as increase in cleaved PARP expression at 10 to 20 uM measured after 72 hrs by Western blot analysis; assay type: functional, cell-based; conditions: dose 10-20 µM
# [14] = target: T1, Heat shock protein HSP90 (Homo sapiens); assay: Inhibition of HSP90 in human HCC1954 cells assessed as reduction in AKT phosphorylation at 10 to 20 uM measured after 72 hrs by Western blot analysis; assay type: cell-based; conditions: dose 10-20 µM
# [15] = target: T1, Heat shock protein HSP90 (Homo sapiens); assay: Inhibition of HSP90 in human HCC1954 cells assessed as down regulation of ERK1/2 expression at 10 to 20 uM measured after 72 hrs by Western blot analysis; assay type: cell-based; conditions: dose 10-20 µM
# [16] = system: HCC1954; assay: Induction of apoptosis in human HCC1954 cells assessed as increase in cleaved caspase-9 expression at 10 to 20 uM measured after 72 hrs by Western blot analysis; assay type: functional, cell-based; conditions: dose 10-20 µM
# [17] = Effect on HSP70 expression in human HCC1954 cells at 10 to 20 uM measured after 72 hrs by Western blot analysis; assay type: toxicity, cell-based; conditions: hcc1954, 72 h, dose 10-20 µM
SMILES,IC50 [1] [µM],IC50 [2] [µM],IC50 [3] [µM],also measured
COc1ccc(-c2onc3c2/C(=N/OC(=O)c2cccc(NC(=O)c4cccc(F)c4)c2)CC(C)(C)C3)cc1OC,> 25,> 25,> 25,–
CC1(C)C/C(=N\OC(=O)c2cccc(NC(=O)c3cccc(F)c3)c2)c2c(-c3cccc(F)c3)noc2C1,25,> 25,> 25,–
O=C(Nc1cccc(C(=O)O/N=C2\CCCc3noc(-c4cccc(F)c4)c32)c1)c1cccc(F)c1,> 25,9.3,> 25,–
O/N=C1\CCCc2onc(-c3cccc(F)c3)c21,> 25,> 25,> 25,–
CC(=O)Nc1ccccc1C(=O)O/N=C1\CCCc2noc(-c3ccc(F)cc3)c21,> 25,> 25,> 25,–
COc1ccc(-c2noc3c2/C(=N/OC(=O)c2cccc(NC(=O)c4cccc(N)c4)c2)CCC3)cc1OC,25,> 25,> 25,–
CC(C)(C)OC(=O)Nc1cccc(C(=O)Nc2cccc(C(=O)O/N=C3\CCCc4onc(-c5ccc(F)cc5)c43)c2)c1,> 25,> 25,> 25,–
CC1(C)C/C(=N\OC(=O)c2cccc(NC(=O)c3cccc(F)c3)c2)c2c(-c3ccc(F)cc3)noc2C1,5.2,> 25,> 25,–
O=C(Nc1ccccc1C(=O)O/N=C1\CCCc2noc(-c3ccc(F)cc3)c21)c1ccccc1F,> 25,> 25,> 25,–
O=C(Nc1cccc(C(=O)O/N=C2\CCCc3onc(-c4cccc(F)c4)c32)c1)c1cccc(F)c1,4.7,8.7,> 25,–
Nc1cccc(C(=O)Nc2cccc(C(=O)O/N=C3\CCCc4onc(-c5ccc(F)cc5)c43)c2)c1,> 25,> 25,> 25,–
CC1(C)C/C(=N\OC(=O)c2ccccc2NC(=O)c2ccccc2F)c2c(-c3ccc(F)cc3)noc2C1,> 25,> 25,> 25,–
O=C(Nc1cccc(C(=O)O/N=C2\CCCc3onc(-c4ccccc4F)c32)c1)c1cccc(F)c1,> 25,6.2,> 25,–
COc1cc(-c2onc3c2/C(=N/OC(=O)c2cccc(NC(=O)c4cccc(F)c4)c2)CC(C)(C)C3)ccc1O,6.2,> 25,6,Activity [4]: Active; Activity [5]: Dde; inhibition [6]: Active; inhibition [7]: Active; Activity [8]: Active; inhibition [9]: Active; Activity [10]: 50%; IC50 [11]: 6 µM; IC50 at 72 h [12]: > 30 µM; Activity [13]: Active; inhibition [14]: Active; inhibition [15]: Active; Activity [16]: Active; Activity [17]: Non-Toxic
COc1cc(/C=C(\C#N)C(N)=O)cc(CSc2nc3ccccc3s2)c1O,–,–,–,IC50 [11]: 30 µM
Nc1cccc(C(=O)Nc2cccc(C(=O)O/N=C3\CCCc4noc(-c5ccc(F)cc5)c43)c2)c1,> 25,> 25,> 25,–
O=C(O)c1cccc(NC(=O)c2cccc(F)c2)c1,> 25,> 25,> 25,–
COc1ccc(-c2noc3c2/C(=N/OC(=O)c2cccc(NC(=O)c4cccc(F)c4)c2)CC(C)(C)C3)cc1OC,> 25,> 25,> 25,–
O=C(Nc1cccc(C(=O)O/N=C2\CCCc3noc(-c4ccc(F)cc4)c32)c1)c1cccc(F)c1,> 25,> 25,> 25,–
COc1ccc(-c2noc3c2/C(=N/OC(=O)c2cccc(NC(=O)c4cccc(F)c4)c2)CCC3)cc1OC,> 25,> 25,> 25,–
O=C(Nc1ccccc1C(=O)O/N=C1\CCCc2onc(-c3ccc(F)cc3)c21)c1cccc(F)c1,> 25,> 25,> 25,–
CC1(C)C/C(=N\OC(=O)c2cccc(NC(=O)c3cccc(F)c3)c2)c2c(noc2-c2cccc(F)c2)C1,> 25,> 25,> 25,–
COc1cccc(C(=O)Nc2cccc(C(=O)O/N=C3\CCCc4onc(-c5ccc(OC)c(OC)c5)c43)c2)c1,> 25,> 25,> 25,–
